This is an account of results in patent publication EP4745124A1, “NAPHTHALIMIDE-BASED CORONAVIRUS PAPAIN-LIKE PROTEASE INHIBITOR” (Guangzhou National Laboratory, priority 2023, dated 2025).

The conditions of data set [1]: clearance proportion.
Data set [2] can be described thus: Routine pharmacokinetic (PK) test in rats, oral gavage. To be noted: rat, 5 mg/kg, plasma. In kind it is in vivo. As for the experimental part: Solvent formula: 10% DMSO, 5% ethanol, 5% Cremophor EL and 80% deionized water. […] Measure 1.316 mL of DMSO, vortex for 1 minute, and sonicate for 10 minutes to obtain a 5 mg/mL clear DMSO stock solution.
Take 1 mL of 5 mg/mL DMSO stock solution, add 0.5 mL of ethanol, vortex for 1 minute, add 0.5 mL of Cremophor EL, vortex for 1 minute, and finally add 8 mL of deionized water, vortex for 1 minute to obtain a clear administration formulation with a concentration of 0.5 mg/mL. Prepare it immediately before use and store it at room temperature after preparation.
Oral gavage administration, with the route of administration consistent with the intended clinical route of administration.
Oral sampling: There were a total of 8 collection time points, at 0.25, 0.5, 1, 2, 4, 6, 8 and 24 hours after administration.
Plasma: After euthanasia of the animals, blood was drawn by puncture. The samples were placed in tubes containing K2-EDTA and stored on ice until centrifugation. Within 1 hour after blood collection, the samples were centrifuged at 6800 g for 6 minutes at 2-8°C to obtain plasma samples, which were then frozen and stored at approximately -80°C.
Analyze the compound. While analyzing the sample, utilize quality control samples to evaluate the intra-day accuracy of the analytical batch.
When calculating pharmacokinetic parameters, the BLQ concentration data before the time to reach peak concentration (Tmax) in the oral administration group are calculated as "0", and BLQ concentration data after Tmax are excluded from all calculations.
The non-compartmental model statistical moment method using Phoenix WinNonlin® 7.0 software was employed to calculate the following main pharmacokinetic parameters: Tmax, Cmax, AUC(0-t), T1/2, etc.
1) Take 30 µL of mixed standard curve samples, quality control samples, blank samples, zero concentration samples, and test samples. 2) For standard curve samples, quality control samples, zero concentration samples and test samples, add 300 µL of internal standard working solution (containing 100 ng/mL IS). For blank samples, ULOQ without IS samples (if necessary), add the same volume of acetonitrile. 3) Vortex mix for 1 minute 4) Centrifuge at 4°C for 7 minutes (18,000g) 5) Take 200 µL of the supernatant to the corresponding wells of a 96-well injection plate. 6) Inject 4µL of sample for LC-MS/MS analysis. Table 4 Pharmacokinetic data of compounds after oral administration in vivo

In a further data set the test system is SARS-Cov-2 XBB.1. The data set is described as follows: microbe, parasite or virus in culture. In kind it is cell-based. To be noted: Severe acute respiratory syndrome coronavirus 2, Vero C1008, 48 h, read-out: SARS-Cov-2 XBB.1 EC50 (µM).
The test system of the next data set is SARS-Cov-2 Omicron BA.5. Description: microbe, parasite or virus in culture. In kind it is cell-based. Particulars: Severe acute respiratory syndrome coronavirus 2, Vero C1008, 48 h, read-out: SARS-Cov-2 Omicron BA.5 EC50 (µM).
For data set [3] the following is noted: clearance proportion. This is another data set of the same source.
For another data set, the system named is SARS-CoV-2 WT. Description: Anti-viral activity evaluation in SARS-CoV-2 infected Vero-E6 cell model (qRT-PCR viral copy numbers). Particulars: Severe acute respiratory syndrome coronavirus 2, Vero C1008, 48 h, read-out: SARS-Cov-2 WT EC50 (µM). Type of data set: cell-based. (In qPCR the cycle at which signal appears reflects the starting amount.)

As a reminder, the AUC(0-t) is the area under the concentration-time curve up to a stated or last time point. What is called Cmax is the peak of the concentration-time curve. By Tmax is commonly meant the time from dosing to the highest level. As a reminder, the half-life is the time needed for the level to fall by half in the phase considered. The low end stands for fast loss, the high end for slow loss. Usually EC50 stands for the concentration giving half of the maximal effect. Regarding `Cc1ccc(N2CCN(C)CC2)cc1C(=O)NC1(c2ccc3c4c(cccc24)C(=O)N3C)CC1` [Compound P1, 2-Methyl-N-(1-(1-methyl-2-oxo-1,2-dihydrobenzo[cd]indol-6-yl)cyclopropyl)-5-(4-methylpiperazin-1-yl)benzamide], in data set [1], the “Human Eh (%)” value amounted to 77%. In addition, in data set [2], the AUC(0-t) worked out at 3390 ng·h/mL, the concentration peaked (Cmax) at 393 ng/mL, the Tmax came to 3 h and the half-life is 3 h. Moreover, the EC50 in the data set on SARS-Cov-2 XBB.1 was in the range of 0.1 to 1 µM. The EC50 with SARS-Cov-2 Omicron BA.5 lay within 0.1 to 1 µM. Also, in data set [3], the “Rat Eh (%)” value worked out at 37.3%. The EC50 with SARS-CoV-2 WT lay within 0.1 to 1 µM.
